Laboratory results published in patent publication US20250157571A1, “Methods, Apparatus, and Systems for Determining the Functional Microbial Niche and Identifying Interventions in Complex Hetergeneous Communities” (The Regents of the University of California, priority 2022, published 2025).
Entries after “also recorded” stand apart in the source; their conditions may differ.

Key:
Format in all cases: cell-based
16-member SynCom = assay: Targeted interventions in the SynCom (prebiotic metabolite or probiotic strain addition), metagenomics relative abundance; settings: 7 days; for change in relative abundance in the community upon metabolite addition: SynCom in 0.1×R2A + metabolite, three concentrations; for relative abundance of primary targets (high TE for import protein) after metabolite addition / relative abundance of secondary targets (guild competitors) after metabolite addition: SynCom in 0.1×R2A + substrate vs 0.1×R2A control
Description: Optical density readings at 600 nm (OD600), from isolates pre-cultures were taken with a Molecular Devices SpectraMax M3 Multi-Mode Microplate Reader (VWR, cat #89429-536). Precultures were diluted to a starting OD600 of 0.02 in 5 mL 0.1×R2A. The SynCom was assembled in large volumes to minimize pipetting error and maximize reproducibility. Briefly, 1 mL of each normalized culture (OD600=0.02) was diluted in a final volume of 250 mL 0.1×R2A and spread into 20 mL aliquots in Falcon tubes. Falcon tubes containing the SynCom inoculum were then incubated at 30° C. for 7 days, in aerobic conditions, in four biological replicates. After 7 days of culture, the SynCom samples were harvested by centrifugation and pellets were immediately treated for multi-omics analysis as detailed below (DNA-, RNA- and metaRibo-Seq).
For targeted modifications experiments carried out in the SynCom, the SynCom was assembled and cultured as described above, with modifications. Specific isolates were omitted from the SynCom assembly for the dropout experiments, as described in FIGS. 2d and 2e. Alternatively, concentrated stocks of either Burkholderia, Chitinophaga, Mucilaginibacter or Rhizobium were added as probiotics to the SynCom. Metabolites from concentrated, filter-sterilized stocks of the desired substrates were added to the medium for the prebiotics experiments. Modified SynCom were then incubated at 30° C. for 7 days, in aerobic conditions, in two biological replicates. After 7 days of culture, the modified SynCom samples were harvested by centrifugation and pellets were stored at −80° C. prior to metagenomics analysis.
DNA and RNA from SynCom samples were extracted from leftover lysates from metaRibo-Seq sample preparation, stored in Trizol at −80 C. DNA from soil samples was extracted using ZymoBIOMICS DNA miniprep kit (Zymo). DNA-Seq libraries were prepared using Nextera XT library preparation kit with 700 pg DNA input per sample and 6:30 min tagmentation at 55° C. and barcoded using Nextera XT indexes (Illumina). RNA was extracted using RNeasy mini kit (Qiagen), and rRNA was removed using QIAseq FastSelect-5S/16S/23S kit (Qiagen). RNA-Seq libraries were prepared using KAPA RNA HyperPrep kit (Roche) and barcoded using TruSeq indexes (Illumina). Amplification was followed in real time using SYBR-Green and stopped when reaching a plateau.
Adapter sequences were removed from multi-omics sequencing data using TrimGalore (Cutadapt version 1.18), and quality controlled using FastQC version 0.11.9 (Andrews et al. 2010). Trimmed reads were aligned to a custom SynCom database using bowtie2 version 2.3.2. Gene count tables were obtained using Woltka version 0.1.1 (Zhu et al. 2022). Multi-omics gene counts were normalized to reads per kilobase per million (RPKM).

Rhizobium and Variovorax = assay: Pre-/probiotic intervention in natural soil, shotgun metagenomics relative abundance; settings: for relative abundance of Burkholderia's competitors Rhizobium and Variovorax: soil+SynCom probiotic+prebiotic versus soil+SynCom probiotic (FIG. 6)
Description: (§1) A soil associated with switchgrass lowland reference genome clone (Missaoui, Boerma, and Bouton 2005) that was sampled from a field located in Texas, USA (28.3325, −98.1175) was used. Fifty gram (50 g) of soil was added to 250 mL of 0.1×R2A culture medium or 0.1×R2A+SynCom inoculum prepared as described above, and this volume was spread in 14 mL culture tubes (5 mL in each tube). 50-500 μL of concentrated, filter-sterilized stocks of the desired substrates and/or 20 μL of the SynCom isolate pure cultures diluted at an OD600 of 0.02 (i.e. approximately 8.10^5 CFU/mL) were then added. Soil samples were then grown at 30° C. for 7 days, in aerobic conditions, in two biological replicates (three replicates for reference soil sample). After 7 days of culture, the soil samples were harvested by centrifugation and pellets were stored at −80° C. prior to metagenomics analysis.
(§2) Soil samples from a switchgrass crop similar to the site from which the SynCom strains were originally isolated, were incubated in 33 different conditions: 0.1×R2A alone (soil control), with and without metabolite additions (prebiotic), and with and without individual SynCom members (probiotic, 8.10^5 CFU/mL), or the whole 16-member SynCom (probiotic consortium, 8.10^5 CFU/mL of each member) (see methods and FIG. 6). Changes in microbial community composition were analyzed by shotgun metagenomics.

Burkholderia = assay: as above; settings: for Burkholderia's relative abundance: soil+SynCom probiotic+prebiotic versus soil+SynCom probiotic (FIG. 6)
Chitinophaga = assay: as above; settings: natural soil in 0.1×R2A, 7 days
Description: as §1, §2

Mucilaginibacter = assay: as above; settings: natural soil in 0.1×R2A, 7 days
Description: as §1, §2

Paenibacillus = assay: as above; settings: natural soil in 0.1×R2A, 7 days
Description: as §1, §2

[1] = natural soil in 0.1×R2A, 7 days

C/C1=C2/[N-][C@H]([C@H](CC(N)=O)[C@@]2(C)CCC(=O)NC[C@H](C)OP(=O)([O-])O[C@H]2[C@@H](O)[C@@H](n3cnc4cc(C)c(C)cc43)O[C@@H]2CO)[C@]2(C)N=C(/C(C)=C3N=C(/C=C4N=C1[C@@H](CCC(N)=O)C\4(C)C)[C@@H](CCC(N)=O)[C@]\3(C)CC(N)=O)[C@@H](CCC(N)=O)[C@]2(C)CC(N)=O.[Co+2] (stereo in doubt) [cobalamin]
change in relative abundance in the community upon metabolite addition (16-member SynCom): did not induce any significant change

N[C@@H](CSSC[C@H](N)C(=O)O)C(=O)O [cystine]
change in relative abundance in the community upon metabolite addition (16-member SynCom): did not induce any significant change

O=C(CO)[C@@H](O)[C@H](O)[C@H](O)CO [fructose]
relative abundance of Burkholderia's competitors (Rhizobium and Variovorax; [1]): decrease of its closest competitors Rhizobium and Variovorax | relative abundance of Burkholderia's competitors Rhizobium and Variovorax (Rhizobium and Variovorax): decrease of its competitors Rhizobium and Variovorax | Burkholderia relative abundance, fold change (Burkholderia; [1]): 3.9 fold change | Burkholderia's relative abundance (Burkholderia): increase in Burkholderia's relative abundance

N[C@@H](CCC(=O)N[C@@H](CS)C(=O)NCC(=O)O)C(=O)O [glutathione]
Chitinophaga relative abundance (in words) (Chitinophaga): did not increase Chitinophaga | Mucilaginibacter relative abundance (in words) (Mucilaginibacter): did not decrease Mucilaginibacter abundance | relative abundance of primary targets (high TE for import protein) after metabolite addition (16-member SynCom): specifically increased primary targets Burkholderia and Chitinophaga | relative abundance of secondary targets (guild competitors) after metabolite addition (16-member SynCom): decreasing their competitors Mucilaginibacter, and Bradyrhizobium

CSCC[C@H](N)C(=O)O [methionine]
change in relative abundance in the community upon metabolite addition (16-member SynCom): did not induce any significant change

NCCCCN [putrescine]
relative abundance of primary targets (high TE for import protein) after metabolite addition (16-member SynCom): specifically increased Paenibacillus and Rhodococcus | relative abundance of secondary targets (guild competitors) after metabolite addition (16-member SynCom): reducing competitors Rhizobium, Bradyrhizobium, and Mucilaginibacter

O=C[C@H](O)[C@H](O)[C@H](O)CO [ribose]
Paenibacillus relative abundance, fold change (Paenibacillus): 3.5 fold change | relative abundance of Burkholderia's competitors Rhizobium and Variovorax (Rhizobium and Variovorax): decrease of its competitors Rhizobium and Variovorax | Burkholderia's relative abundance (Burkholderia): increase in Burkholderia's relative abundance | relative abundance of primary targets (high TE for import protein) after metabolite addition (16-member SynCom): specific increase of primary targets Paenibacillus and Burkholderia; also recorded: Paenibacillus (increased), Arthobacter and Brevibacillus (not increased) | relative abundance of secondary targets (guild competitors) after metabolite addition (16-member SynCom): specific decrease of Burkholderia's competitors Variovorax, Rhizobium, and Bradyrhizobium

OC[C@H]1O[C@H](O[C@H]2O[C@H](CO)[C@@H](O)[C@H](O)[C@H]2O)[C@H](O)[C@@H](O)[C@@H]1O [trehalose]
Paenibacillus relative abundance, fold change (Paenibacillus): 5.5 fold change
